Laboratory results reported in patent US11382918B2, “Methods for treating Huntington's Disease” (PTC Therapeutics, Inc., priority 2017, dated 2022).

What follows are molecules tested on Endogenous Huntingtin Protein (HTT) (assay: Endogenous Huntingtin Protein Assay (ELISA-based MSD electrochemiluminescence)). Conditions: Table 1.
Type: cell-based
Procedure, shortened: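 HTT protein in lysates was measured by electrochemiluminescence on the MSD platform. Rabbit monoclonal 5656S followed by SULFO-TAG anti-rabbit antibody served for detection after overnight 4 °C capture with MAB2166 or the polyglutamine-directed MW1 antibody.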

Structure (SMILES)	IC50
CCc1cc(-c2cc(=O)n3cc(N4CCNCC4)ccc3n2)cn2cc(C)nc12 [compound 637, 2-(8-ethyl-2-methylimidazo[1,2-a]pyridin-6-yl)-7-(piperazin-1-yl)-4H-pyrido[1,2-a]pyrimidin-4-one]	0.5 to 1 µM
Cc1cn2ccc(-c3cc(=O)n4cc(N5CCNCC5)ccc4n3)cc2n1 [compound 555, 2-(2-methylimidazo[1,2-a]pyridin-7-yl)-7-(piperazin-1-yl)-4H-pyrido[1,2-a]pyrimidin-4-one]	3 to 33 µM
Cc1cn2cc(-c3cc(=O)n4cc(N5CCNCC5)ccc4n3)cc(C(F)(F)F)c2n1 [compound 733, 2-[2-methyl-8-(trifluoromethyl)imidazo[1,2-a]pyridin-6-yl]-7-(piperazin-1-yl)-4H-pyrido[1,2-a]pyrimidin-4-one]	1 to 3 µM
Cc1cn2nc(-c3cc(=O)n4cc(N5CCN(C)CC5)ccc4n3)cc2c(N(C)C)n1 [compound 843, 2-[4-(dimethylamino)-6-methylpyrazolo[1,5-a]pyrazin-2-yl]-7-(4-methylpiperazin-1-yl)-4H-pyrido[1,2-a]pyrimidin-4-one]	3 to 33 µM
